Measurements from ChEMBL document CHEMBL6103541, “Ringing medicinal chemistry: The importance of 3-membered rings in drug discovery” (Bioorg Med Chem, 2024).
≈ marks a conversion by molar mass, not a printed value. *1 amine or outer side, *2 acyl side, *3 side chain or, on linkers, in order; H or OH if unused. Where a SMILES comes first, the peptide text is derived from it. [ ]: non-standard residue; d: D form. The star is where a group is joined. X1 = CCCC(N[*:1])C(=O)C(=O)[*:2]; Chg = N[C@H](C(=O)O)C1CCCCC1; Phg = N[C@H](C(=O)O)c1ccccc1; Boc = CC(C)(C)OC(=O)*

Columns and labels:
[1] = target: Human immunodeficiency virus type 1 reverse transcriptase (Human immunodeficiency virus 1, UniProt Q72547); assay: Inhibition of HIV-1 reverse transcriptase
NS3 protease [2] = target: T1, NS3 protease (Hepacivirus C, UniProt C1KIQ2); assay: Binding affinity to HCV NS3 protease assessed as inhibition constant; set-up: species or system Hepacivirus hominis
NS3 protease [3] = target: T1, NS3 protease; assay: Binding affinity to Hepatitis C virus genotype 1a NS3 protease assessed as inhibition constant; set-up: species or system Hepacivirus hominis
NS3 protease [4] = target: T1, NS3 protease; assay: Binding affinity to Hepatitis C virus genotype 1b NS3 protease assessed as inhibition constant; set-up: species or system Hepacivirus hominis
NS3 protease [5] = target: T1, NS3 protease; assay: Inhibition of Hepatitis C virus genotype 1b NS3 protease; set-up: species or system Hepacivirus hominis
SK-BR-3 = assay: Antiproliferative activity against human SK-BR-3 cells; type: functional, cell-based
Staphylococcus aureus [6] = assay: In vivo antibacterial activity against streptomycin-resistant Staphylococcus aureus infected mouse model assessed as curative dose; type: functional
Staphylococcus aureus [7] = assay: In vivo antibacterial activity against Staphylococcus aureus infected mouse model assessed as curative dose; type: functional
Staphylococcus aureus [8] = assay: In vivo antibacterial activity against erythromycin-resistant Staphylococcus aureus infected mouse model assessed as curative dose; type: functional
Capan-2 = assay: Antiproliferative activity against human Capan-2 cells assessed as reduction in cell viability incubated for 72 hrs by MTT assay; type: functional, cell-based; settings: Capan-2, 72 h
HPAC = assay: Antiproliferative activity against human HPAC cells assessed as inhibition of cell growth measured after 72 hrs by MTT assay; type: functional, cell-based
Hepatitis C virus = assay: Antiviral activity against Hepatitis C virus infected in human Huh7.5 cells assessed as reduction in viral replication; type: functional, Hepacivirus hominis
[9] = Half life in Wistar rat at 10 mg/kg, iv measured for 24 hrs by LC-MS/MS analysis; type: ADME, organism-based; settings: in vivo
[10] = Volume of distribution at steady state in Wistar rat at 10 mg/kg, iv measured for 24 hrs by LC-MS/MS analysis; type: ADME, organism-based; settings: in vivo
BT-549 = assay: Cytotoxicity against human BT-549 cells assessed as inhibition of cell growth incubated for 72 hrs by MTT assay; type: functional, cell-based; settings: BT-549, 72 h
[11] = Inhibition of 20s constitutive proteasome beta-5c (unknown origin); set-up: species or system Homo sapiens
MDA-MB-231 = assay: Antiproliferative activity against human MDA-MB-231 cells assessed as reduction in cell viability incubated for 72 hrs by MTT assay; type: functional, cell-based; settings: MDA-MB-231, 72 h
Staphylococcus aureus [12] = assay: microbe, parasite or virus in culture
Description: Antibacterial activity against Methicillin-resistant staphylococcus aureus

[13] = system: Staphylococcus epidermidis; assay: microbe, parasite or virus in culture
Description: Antibacterial activity against Staphylococcus epidermidis

[14] = system: Staphylococcus saprophyticus; assay: microbe, parasite or virus in culture
Description: Antibacterial activity against Staphylococcus saprophyticus

MCF7 = assay: Antiproliferative activity against human MCF7 cells assessed as reduction in cell viability incubated for 48 hrs by MTT assay; type: functional, cell-based; settings: MCF7, 48 h
SK-N-FI = assay: Antiproliferative activity against human SK-N-FI cells; type: functional, cell-based
[15] = target: Fibroblast growth factor receptor 4 (Homo sapiens, UniProt P22455); assay: Inhibition of FGFR4 (unknown origin)
[16] = target: Fibroblast growth factor receptor 1 (Homo sapiens, UniProt P11362); assay: Inhibition of FGFR1 (unknown origin)
[17] = target: Vascular endothelial growth factor receptor 3 (Homo sapiens, UniProt P35916); assay: Inhibition of VEGFR3 (unknown origin)
[18] = Inhibition of PDGFR (unknown origin); set-up: species or system Homo sapiens
[19] = target: Vascular endothelial growth factor receptor 1 (Homo sapiens, UniProt P17948); assay: Inhibition of VEGFR1 (unknown origin)
[20] = target: Fibroblast growth factor receptor 3 (Homo sapiens, UniProt P22607); assay: Inhibition of FGFR3 (unknown origin)
J82 = assay: Antiproliferative activity against human J82 cells; type: functional, cell-based
[21] = Inhibition of PK1 (unknown origin); set-up: species or system Homo sapiens
SCaBER = assay: Antiproliferative activity against human SCaBER cells; type: functional, cell-based
Thermus thermophilus = assay: Antibacterial activity against Thermus thermophilus; type: functional, organism-based
Staphylococcus aureus [22] = assay: Antibacterial activity against Staphylococcus aureus; type: functional
Staphylococcus aureus [23] = assay: Antibacterial activity against Staphylococcus aureus ATCC 25923 assessed as bacterial growth inhibition measured after 18 hrs by CLSI protocol based two-fold serial microdilution method; type: functional
Streptococcus pneumoniae = assay: Antibacterial activity against Streptococcus pneumoniae ATCC 49619 assessed as inhibition of bacterial growth incubated for 24 hrs by CLSI protocol based broth micro-dilution method; type: functional
Escherichia coli = assay: Antibacterial activity against Escherichia coli assessed as reduction in bacterial growth by broth microdilution method; type: functional
Pseudomonas aeruginosa = assay: Antibacterial activity against Pseudomonas aeruginosa ATCC 15442 assessed as reduction in bacterial cell growth incubated for 18 hrs by two fold serial microdilution method; type: functional
Tubulin = assay: Inhibition of tubulin polymerization (unknown origin); type: protein-complex assay, Homo sapiens
[24] = Inhibition of LPS-induced NFkappaB activation in mouse RAW264.7 cells assessed as inhibition of IKKalpha phosphorylation level incubated for 1 hrs by Western blot analysis; type: cell-based; settings: RAW264.7, 1 h

T1 sequence (C1KIQ2 whole entry): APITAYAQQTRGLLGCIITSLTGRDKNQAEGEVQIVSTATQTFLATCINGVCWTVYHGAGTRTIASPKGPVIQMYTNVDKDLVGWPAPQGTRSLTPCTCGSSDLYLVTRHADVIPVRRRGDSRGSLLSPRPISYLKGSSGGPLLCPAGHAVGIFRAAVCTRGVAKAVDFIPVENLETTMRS
Sequence of Fibroblast growth factor receptor 3 (P22607 whole entry): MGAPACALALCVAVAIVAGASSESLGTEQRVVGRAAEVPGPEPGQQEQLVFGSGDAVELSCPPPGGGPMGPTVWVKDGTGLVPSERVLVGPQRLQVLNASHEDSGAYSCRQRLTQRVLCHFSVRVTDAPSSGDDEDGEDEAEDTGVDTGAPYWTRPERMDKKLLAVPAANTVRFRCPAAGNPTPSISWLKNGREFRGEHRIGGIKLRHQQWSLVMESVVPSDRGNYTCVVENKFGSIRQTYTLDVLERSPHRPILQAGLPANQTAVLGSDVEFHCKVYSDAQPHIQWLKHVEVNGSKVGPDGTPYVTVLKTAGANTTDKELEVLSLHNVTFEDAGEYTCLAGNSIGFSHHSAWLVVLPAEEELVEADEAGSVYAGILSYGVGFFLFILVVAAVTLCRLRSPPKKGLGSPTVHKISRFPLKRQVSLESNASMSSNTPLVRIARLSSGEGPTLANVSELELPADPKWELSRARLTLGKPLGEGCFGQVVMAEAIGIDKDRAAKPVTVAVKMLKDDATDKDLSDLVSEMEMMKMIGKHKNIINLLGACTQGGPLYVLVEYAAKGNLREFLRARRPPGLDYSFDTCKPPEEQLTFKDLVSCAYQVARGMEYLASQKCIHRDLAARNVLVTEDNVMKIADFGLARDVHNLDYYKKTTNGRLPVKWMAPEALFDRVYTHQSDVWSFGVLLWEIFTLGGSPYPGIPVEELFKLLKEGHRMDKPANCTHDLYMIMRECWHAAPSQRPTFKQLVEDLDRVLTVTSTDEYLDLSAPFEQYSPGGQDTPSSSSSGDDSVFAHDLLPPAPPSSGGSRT
Sequence of Fibroblast growth factor receptor 4 (P22455 whole entry): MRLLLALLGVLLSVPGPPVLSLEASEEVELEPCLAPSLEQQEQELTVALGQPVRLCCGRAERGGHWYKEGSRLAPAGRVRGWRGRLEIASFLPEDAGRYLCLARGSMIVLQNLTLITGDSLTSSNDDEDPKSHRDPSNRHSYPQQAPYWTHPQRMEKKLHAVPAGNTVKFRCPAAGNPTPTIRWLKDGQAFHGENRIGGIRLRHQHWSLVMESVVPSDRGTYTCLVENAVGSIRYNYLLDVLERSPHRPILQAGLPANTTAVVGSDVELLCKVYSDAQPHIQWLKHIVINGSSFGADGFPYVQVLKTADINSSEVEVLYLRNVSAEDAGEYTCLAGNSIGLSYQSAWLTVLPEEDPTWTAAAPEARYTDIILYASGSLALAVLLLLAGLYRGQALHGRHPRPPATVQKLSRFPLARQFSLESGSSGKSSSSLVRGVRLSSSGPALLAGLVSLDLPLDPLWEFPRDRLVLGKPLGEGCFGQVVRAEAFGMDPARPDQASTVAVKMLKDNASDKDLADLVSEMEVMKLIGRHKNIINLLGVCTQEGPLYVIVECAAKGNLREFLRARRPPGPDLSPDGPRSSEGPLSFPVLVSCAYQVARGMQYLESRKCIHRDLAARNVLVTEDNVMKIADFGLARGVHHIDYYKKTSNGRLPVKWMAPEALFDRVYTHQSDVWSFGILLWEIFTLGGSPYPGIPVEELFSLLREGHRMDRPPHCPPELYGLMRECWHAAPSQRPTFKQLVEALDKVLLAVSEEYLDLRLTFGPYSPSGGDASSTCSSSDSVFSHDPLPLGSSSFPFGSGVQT
Sequence of Vascular endothelial growth factor receptor 1 (P17948 whole entry): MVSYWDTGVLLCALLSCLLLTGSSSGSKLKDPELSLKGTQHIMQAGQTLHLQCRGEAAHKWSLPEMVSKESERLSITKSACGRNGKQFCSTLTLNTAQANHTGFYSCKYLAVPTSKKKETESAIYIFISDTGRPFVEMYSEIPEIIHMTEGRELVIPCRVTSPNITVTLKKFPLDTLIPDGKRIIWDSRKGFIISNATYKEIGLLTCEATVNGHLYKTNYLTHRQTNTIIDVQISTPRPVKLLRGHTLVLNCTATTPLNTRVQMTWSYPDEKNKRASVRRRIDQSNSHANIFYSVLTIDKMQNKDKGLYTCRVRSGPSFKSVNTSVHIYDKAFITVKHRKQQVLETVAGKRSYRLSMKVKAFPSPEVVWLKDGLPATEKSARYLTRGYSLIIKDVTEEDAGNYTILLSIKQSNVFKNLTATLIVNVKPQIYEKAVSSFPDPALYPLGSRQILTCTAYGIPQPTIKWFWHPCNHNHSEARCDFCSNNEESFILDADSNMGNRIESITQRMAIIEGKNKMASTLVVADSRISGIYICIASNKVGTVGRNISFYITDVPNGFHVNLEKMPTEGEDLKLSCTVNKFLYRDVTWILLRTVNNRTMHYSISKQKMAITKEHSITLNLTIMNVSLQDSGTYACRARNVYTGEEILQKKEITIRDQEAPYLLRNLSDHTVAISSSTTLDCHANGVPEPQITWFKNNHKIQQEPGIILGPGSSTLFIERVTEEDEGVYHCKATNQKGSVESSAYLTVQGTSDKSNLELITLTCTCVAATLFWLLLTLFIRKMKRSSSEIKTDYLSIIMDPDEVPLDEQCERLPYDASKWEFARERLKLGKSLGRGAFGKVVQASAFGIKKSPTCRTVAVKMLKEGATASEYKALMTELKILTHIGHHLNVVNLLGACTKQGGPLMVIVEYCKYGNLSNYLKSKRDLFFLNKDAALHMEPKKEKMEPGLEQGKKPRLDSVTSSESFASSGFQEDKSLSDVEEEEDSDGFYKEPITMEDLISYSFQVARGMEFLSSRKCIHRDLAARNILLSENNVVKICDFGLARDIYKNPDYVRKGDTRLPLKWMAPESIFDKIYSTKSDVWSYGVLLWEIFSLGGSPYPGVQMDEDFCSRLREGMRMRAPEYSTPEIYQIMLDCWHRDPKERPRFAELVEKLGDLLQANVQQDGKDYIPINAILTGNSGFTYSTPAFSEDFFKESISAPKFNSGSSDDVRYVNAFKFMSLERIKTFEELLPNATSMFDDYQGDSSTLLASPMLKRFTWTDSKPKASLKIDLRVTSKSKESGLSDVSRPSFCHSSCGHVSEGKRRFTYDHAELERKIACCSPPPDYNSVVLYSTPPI
Sequence of Fibroblast growth factor receptor 1 (P11362 whole entry): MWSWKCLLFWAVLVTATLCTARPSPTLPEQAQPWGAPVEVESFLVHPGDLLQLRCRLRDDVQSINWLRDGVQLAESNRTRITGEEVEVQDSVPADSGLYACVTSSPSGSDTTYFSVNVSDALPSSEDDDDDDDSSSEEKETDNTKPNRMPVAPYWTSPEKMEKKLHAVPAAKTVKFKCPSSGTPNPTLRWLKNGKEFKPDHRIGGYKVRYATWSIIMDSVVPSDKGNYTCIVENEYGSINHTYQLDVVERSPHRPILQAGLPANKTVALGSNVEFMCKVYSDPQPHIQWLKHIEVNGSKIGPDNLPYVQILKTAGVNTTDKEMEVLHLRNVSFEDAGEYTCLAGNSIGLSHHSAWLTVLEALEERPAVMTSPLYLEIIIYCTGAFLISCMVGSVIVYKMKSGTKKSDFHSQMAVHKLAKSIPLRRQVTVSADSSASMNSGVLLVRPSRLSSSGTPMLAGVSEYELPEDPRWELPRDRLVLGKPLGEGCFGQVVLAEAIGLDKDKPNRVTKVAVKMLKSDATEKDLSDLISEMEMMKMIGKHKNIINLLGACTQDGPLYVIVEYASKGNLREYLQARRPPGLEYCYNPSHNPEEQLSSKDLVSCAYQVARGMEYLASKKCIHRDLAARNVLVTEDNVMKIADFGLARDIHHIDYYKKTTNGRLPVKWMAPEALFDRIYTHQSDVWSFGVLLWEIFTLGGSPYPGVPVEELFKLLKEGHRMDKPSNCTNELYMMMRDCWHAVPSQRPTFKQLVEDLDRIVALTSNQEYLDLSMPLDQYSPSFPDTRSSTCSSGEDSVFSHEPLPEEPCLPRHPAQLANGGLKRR

CCN1c2ncccc2C(=O)Nc2c(C)ccnc21
IC50 [1]: 30 nM
Ki (NS3 protease [2]): 10 nM

COc1ccc2c(O[C@@H]3C[C@H]4C(=O)N[C@]5(C(=O)NS(=O)(=O)C6CC6)C[C@H]5/C=C\CCCCN(C)C(=O)[C@@H]4C3)cc(-c3nc(C(C)C)cs3)nc2c1C
Ki (NS3 protease [3]): 0.5 nM
Ki (NS3 protease [4]): 0.4 nM
IC50 (NS3 protease [5]): 8 nM

COc1cc2cc(c1Cl)N(C)C(=O)C[C@H](OC(=O)[C@@H](C)N(C)C(=O)CCS)[C@]1(C)O[C@H]1[C@H](C)[C@@H]1C[C@@](O)(NC(=O)O1)[C@H](OC)/C=C/C=C(\C)C2
IC50 (SK-BR-3): 1.1 nM

CC(C)[C@H](N)C(=O)N[C@H](C(=O)O)[C@@H]1C[C@H](NC(=N)N)[C@@H]2CN21 (some centres not stated)
CD50 (Staphylococcus aureus [6]): 10 mg/kg
CD50 (Staphylococcus aureus [7]): 7.6 mg/kg
CD50 (Staphylococcus aureus [8]): 11 mg/kg

CCn1c(-c2cc(N3CCN(C)CC3)cnc2[C@H](C)OC)c2c3cc(ccc31)-c1csc(n1)C[C@H](NC(=O)[C@H]1C[C@@H]1C)C(=O)N1CCC[C@H](N1)C(=O)OCC(C)(C)C2
IC50 (Capan-2): 1.4 nM
IC50 (HPAC): 1.2 nM

COc1ccc2c(O[C@@H]3C[C@H]4C(=O)N[C@]5(C(=O)O)C[C@H]5/C=C/CCCCC[C@H](NC(=O)OC5CCCC5)C(=O)N4C3)cc(-c3csc(NC(C)C)n3)cc2c1
Ki (NS3 protease [3]): 0.3 nM
Ki (NS3 protease [4]): 3 nM
IC50 (NS3 protease [5]): 3 nM

CCCC(NC(=O)[C@H](CC(C)C)NC(=O)[C@@H](NC(=O)OC(C)(C)C)C1CCCCC1)C(=O)C(=O)NCC(=O)N[C@H](C(N)=O)c1ccccc1 (some centres not stated) (Boc-[Chg]L[X1]G[Phg]-NH2)
Ki (NS3 protease [2]): 66 nM
EC90 (Hepatitis C virus): 200 nM

CC[C@@H]1C(=O)N(C)c2cnc(Nc3ccc(C(=O)NC4CCN(C)CC4)cc3OC)nc2N1C1CCCC1 [BI-2536]
half-life [9]: < 50 h
Vd [10]: 750 L

CC(C)(C)NC(=O)N[C@H](C(=O)N1C[C@H]2[C@@H]([C@H]1C(=O)NC(CC1CCC1)C(=O)C(N)=O)C2(C)C)C(C)(C)C (some centres not stated) [BOCEPREVIR]
Ki (NS3 protease [2]): 14 nM
EC90 (Hepatitis C virus): 350 nM

CC(C)C[C@H](NC(=O)[C@H](CCc1ccccc1)NC(=O)CN1CCOCC1)C(=O)N[C@@H](Cc1ccccc1)C(=O)N[C@@H](CC(C)C)C(=O)[C@@]1(C)CO1 [CARFILZOMIB]
IC50 (BT-549): 10.8 nM
IC50 [11]: 6 nM
IC50 (MDA-MB-231): 22.4 nM

O=C(O)c1cn(C2CC2)c2cc(N3CCNCC3)c(F)cc2c1=O [CIPROFLOXACIN]
MIC (Staphylococcus aureus [12]): 0.12 µg/mL (≈ 0.362 µM)
MIC [13]: < 1 µg/mL
MIC [14]: < 1 µg/mL

C[C@]12C[C@H]3S[C@H]3C[C@@H]1CC[C@@H]1[C@@H]2CC[C@]2(C)[C@@H](O)CC[C@@H]12 [EPITIOSTANOL]
IC50 (MCF7): 30 nM

C/C1=C/C[C@@H](/C(C)=C/c2csc(C)n2)OC(=O)C[C@H](O)C(C)(C)C(=O)[C@H](C)[C@@H](O)[C@@H](C)CCC1 [EPOTHILONE D]
IC50 (SK-N-FI): 46 nM

C/C(=C\c1csc(C)n1)[C@@H]1C[C@@H]2O[C@]2(C)CCC[C@H](C)[C@H](O)[C@@H](C)C(=O)C(C)(C)[C@@H](O)CC(=O)N1 [IXABEPILONE]
IC50 (SK-N-FI): 10 nM

COc1cc2nccc(Oc3ccc(NC(=O)NC4CC4)c(Cl)c3)c2cc1C(N)=O [LENVATINIB]
IC50 [15]: 27 nM
IC50 [16]: 27 nM
IC50 [17]: 2 nM
IC50 [18]: 29 nM
IC50 [19]: 2 nM
IC50 [20]: 27 nM

CO[C@@]12[C@H](COC(N)=O)C3=C(C(=O)C(C)=C(N)C3=O)N1C[C@@H]1N[C@@H]12 [MITOMYCIN]
IC50 (J82): 300 nM
IC50 [21]: 287 nM
IC50 (SCaBER): 1500 nM

C/C(=C\C(=O)OCCCCCCCCC(=O)O)C[C@@H]1OC[C@H](C[C@@H]2O[C@H]2[C@@H](C)[C@H](C)O)[C@@H](O)[C@H]1O [MUPIROCIN]
IC50 (Thermus thermophilus): 900 nM
MIC (Staphylococcus aureus [22]): 0.1 µg/mL (≈ 0.2 µM)

CCn1cc(C(=O)O)c(=O)c2cc(F)c(N3CCNCC3)cc21 [NORFLOXACIN]
MIC (Staphylococcus aureus [23]): ≤ 0.06 µg/mL
MIC (Streptococcus pneumoniae): ≤ 0.06 µg/mL
MIC (Escherichia coli): ≤ 0.06 µg/mL
MIC (Pseudomonas aeruginosa): ≤ 0.06 µg/mL

COC[C@H](NC(=O)c1cnc(C)s1)C(=O)N[C@@H](COC)C(=O)N[C@@H](Cc1ccccc1)C(=O)[C@@]1(C)CO1 [OPROZOMIB]
IC50 (BT-549): 50 nM
IC50 [11]: 36 nM
IC50 (MDA-MB-231): 79 nM

C/C(=C\c1csc(C)n1)[C@@H]1C[C@@H]2O[C@]2(C)CCC[C@H](C)[C@H](O)[C@@H](C)C(=O)C(C)(C)[C@@H](O)CC(=O)O1 [PATUPILONE]
IC50 (SK-N-FI): 10 nM
IC50 (Tubulin): 1.8 nM

CC[C@@H]1C(=O)N(C)c2cnc(Nc3ccc(C(=O)N[C@H]4CC[C@H](N5CCN(CC6CC6)CC5)CC4)cc3OC)nc2N1C(C)C [VOLASERTIB]
half-life [9]: > 110 h
Vd [10]: > 4000 L

CC1=C(CO)C(=O)O[C@@H]([C@@H](C)[C@H]2CC[C@H]3[C@@H]4C[C@H]5O[C@]56[C@@H](O)C=CC(=O)[C@]6(C)[C@H]4CC[C@]23C)C1 [WITHAFERIN A]
IC50 [24]: 250 nM
